Results reported in ChEMBL document CHEMBL1140491, “Amino-caprolactam derivatives as gamma-secretase inhibitors” (Bioorg Med Chem Lett, 2007).

Legend:
[1] = Drug level in Tg2576 mouse brain at 200 µmol/kg, po after 3 hrs; conditions: read-out: Drug uptake
[2] = Ratio of drug level in brain to plasma in Tg2576 mouse at 200 mg/kg, po after 3 hrs
[3] = Drug level in Tg2576 mouse plasma at 200 µmol/kg, po after 3 hrs

Row | SMILES | concentration at 3 h [1] [µM] | Kp at 3 h [2] | concentration at 3 h [3] [nM]
1 | COc1ccc(CN([C@@H]2CCCCNC2=O)S(=O)(=O)c2ccc(Cl)cc2)cc1 | 2.2 | 7 | 280
2 | CN(C)c1ccc(CN([C@@H]2CCCCNC2=O)S(=O)(=O)c2ccc(Cl)cc2)cc1 | 4.2 | 2.8 | 1600
